Assay [1] deals with T1, human TLR7 (Homo sapiens, UniProt Q9NYK1).
T1 construct: host or cells: HEK293 (HEK-Blue hTLR7)
T1 sequence (Q9NYK1 27-1049): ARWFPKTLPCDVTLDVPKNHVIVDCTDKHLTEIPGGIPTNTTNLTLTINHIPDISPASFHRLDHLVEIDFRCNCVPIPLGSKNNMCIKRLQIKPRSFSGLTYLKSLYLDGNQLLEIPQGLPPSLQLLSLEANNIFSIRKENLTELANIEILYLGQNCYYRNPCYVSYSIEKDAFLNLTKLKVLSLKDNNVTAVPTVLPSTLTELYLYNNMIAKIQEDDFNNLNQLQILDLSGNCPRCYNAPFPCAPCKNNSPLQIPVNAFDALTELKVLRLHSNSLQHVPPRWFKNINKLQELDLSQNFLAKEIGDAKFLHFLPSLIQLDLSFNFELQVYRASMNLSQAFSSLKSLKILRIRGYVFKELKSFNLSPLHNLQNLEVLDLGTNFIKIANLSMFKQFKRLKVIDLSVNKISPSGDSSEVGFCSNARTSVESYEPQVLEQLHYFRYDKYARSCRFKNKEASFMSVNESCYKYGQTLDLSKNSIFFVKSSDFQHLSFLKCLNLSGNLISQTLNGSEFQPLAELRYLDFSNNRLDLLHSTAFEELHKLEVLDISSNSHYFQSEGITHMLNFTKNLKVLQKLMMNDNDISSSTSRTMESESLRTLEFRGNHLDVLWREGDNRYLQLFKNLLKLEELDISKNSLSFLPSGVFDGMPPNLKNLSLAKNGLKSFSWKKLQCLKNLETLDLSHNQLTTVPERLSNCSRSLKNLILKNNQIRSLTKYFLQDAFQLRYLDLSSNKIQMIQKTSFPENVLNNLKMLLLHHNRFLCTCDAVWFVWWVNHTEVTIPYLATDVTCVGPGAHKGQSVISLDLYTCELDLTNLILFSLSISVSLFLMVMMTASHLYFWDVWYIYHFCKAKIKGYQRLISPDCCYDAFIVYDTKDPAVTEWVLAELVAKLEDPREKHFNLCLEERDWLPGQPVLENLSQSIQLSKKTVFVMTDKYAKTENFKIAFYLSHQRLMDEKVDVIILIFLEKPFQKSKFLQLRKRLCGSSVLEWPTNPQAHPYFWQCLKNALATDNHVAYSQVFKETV
Briefly: HEK-Blue hTLR7 reporter cell assay (SEAP, NF-kB/AP-1) for stimulation of human TLR7. Format: cell-based. The conditions noted are these: HEK-Blue hTLR7 cells; for EC50: 24 h incubation, SEAP readout, read-out: TLR7_EC50; for activation at 20 µM: 24 h, at 20000 nM. How it is done: (§1) The below tests, involving measuring the in vitro activity of some compounds of the disclosure on TLR7 and TLR8, were carried out using the HEK-Blue™ cells as reporter.
The activity described below, with respect to TLR7, TLR8, IFN-α2a, IL-6, IL29 and TNF-α, is given by the half maximal effective concentration (EC50), which corresponds to the concentration required to obtain a 50% of the activation. The lower the EC50, the less the concentration of the compound is required to produce 50% of maximum activation and the higher the potency.
(§2) In Vitro Assay for Studying the Stimulation of Human TLR7 and TLR8:
(§3) HEK-Blue™ hTLR7 Cells (#hkb-htlr7) and HEK-Blue™ hTLR8 Cells (#hkb-htlr8) from InvivoGen were used according to the manufacturer's instructions. These Reporter HEK293 cells were obtained by co-transfection of the hTLR7 or TLR8 gene and an optimized Secreted Embryonic Alkaline Phosphatase (SEAP) reporter gene which is placed under the control of the IFN-β minimal promoter fused to five NF-κB and AP-1-binding sites. Stimulation with a TLR7/8 ligand activates NF-kB and AP-1 which induce the production of SEAP. The cells are seeded in 96-well plate at 3.10E4 cells/well and incubated 18 to 24 h at 37° C., 5% CO2 before adding the compounds to evaluate. The cells are subsequently incubated with 3-fold serial dilutions of each of the compounds (0.01 to 20 μM) for 24 hours at 37° C., 5% CO2. Next, 20 μL of the supernatant is harvested and incubated with 200 μL of QUANTI-Blue™ Solution.

The target of assay [2] is T2, human TLR8 (Homo sapiens, UniProt Q9NR97).
T2 construct: host or cells: HEK293 (HEK-Blue hTLR8)
T2 sequence (Q9NR97 27-1041): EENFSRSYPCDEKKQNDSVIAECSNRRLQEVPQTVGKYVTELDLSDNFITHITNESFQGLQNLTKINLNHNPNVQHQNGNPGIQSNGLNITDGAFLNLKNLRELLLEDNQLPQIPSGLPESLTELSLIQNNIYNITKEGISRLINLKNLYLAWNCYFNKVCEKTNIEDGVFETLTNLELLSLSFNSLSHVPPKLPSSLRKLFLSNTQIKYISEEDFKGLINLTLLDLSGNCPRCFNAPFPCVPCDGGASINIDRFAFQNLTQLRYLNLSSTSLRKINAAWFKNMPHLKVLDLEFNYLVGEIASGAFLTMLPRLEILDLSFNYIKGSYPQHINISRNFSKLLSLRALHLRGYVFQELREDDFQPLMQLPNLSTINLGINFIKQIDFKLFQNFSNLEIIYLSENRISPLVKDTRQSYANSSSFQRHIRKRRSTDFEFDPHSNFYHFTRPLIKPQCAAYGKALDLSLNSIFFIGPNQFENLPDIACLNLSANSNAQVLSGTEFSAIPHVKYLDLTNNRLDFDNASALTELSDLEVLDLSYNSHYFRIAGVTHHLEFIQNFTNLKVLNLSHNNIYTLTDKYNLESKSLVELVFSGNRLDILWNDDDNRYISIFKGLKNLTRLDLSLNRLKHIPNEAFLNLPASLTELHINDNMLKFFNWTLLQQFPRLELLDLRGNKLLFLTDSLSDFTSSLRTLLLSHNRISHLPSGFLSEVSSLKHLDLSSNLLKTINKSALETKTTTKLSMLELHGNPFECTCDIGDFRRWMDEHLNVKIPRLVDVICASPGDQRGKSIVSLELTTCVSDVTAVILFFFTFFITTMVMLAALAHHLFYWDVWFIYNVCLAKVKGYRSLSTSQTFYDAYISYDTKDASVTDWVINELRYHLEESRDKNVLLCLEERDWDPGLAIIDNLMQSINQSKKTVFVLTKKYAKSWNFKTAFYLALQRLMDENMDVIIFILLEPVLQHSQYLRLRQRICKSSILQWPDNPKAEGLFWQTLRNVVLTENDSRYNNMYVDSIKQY
Briefly: HEK-Blue hTLR8 reporter cell assay (SEAP, NF-kB/AP-1) for stimulation of human TLR8. Format: cell-based. The conditions noted are these: HEK-Blue hTLR8 cells; for EC50: 24 h incubation, SEAP readout, read-out: TLR8_EC50. How it is done: as §1, §2
as §3, with “The cells are subsequently incubated with 3-fold serial dilutions of each of the compounds (0.01 to 20 μM) for 24 hours at 37° C., 5% CO2.” left out

Where a name gives a salt, the structure may show the parent alone.

Take `CCCCc1nc2c(N)nnc(OC(C)C)c2n1Cc1ccc(CNC(C)=O)cc1` [Compound 28, N-(4-((4-amino-2-butyl-7-isopropoxy-1H-imidazo[4,5c]pyridazin-1-yl)methyl)benzyl)acetamide]: the EC50 is 85 nM in assay [1] and over 20 µM in assay [2].
For `CCCCc1nc2c(N)nnc(CCC(C)C)c2n1C[C@H]1CC[C@H](N)CC1` [Compound 140, 1-(((1R,4R)-4-aminocyclohexyl)methyl)-2-butyl-7-isopentyl-1H-imidazo[4,5-d]pyridazin-4-amine], the EC50 in assay [1] was 1310 nM; in assay [2] it was over 20 µM.
As for `CCOCc1nc2c(N)nnc(OC(C)C)c2n1Cc1ccc(CN)cc1` [Compound 159, 1-(4-(aminomethyl)benzyl)-2-(ethoxymethyl)-7-isopropoxy-1H-imidazo[4,5-d]pyridazin-4-amine], the values for the EC50 in assay [1] and in assay [2] were 247 nM and over 20 µM, respectively.
`CCCCc1nc2c(N)nnc(-c3cnn(C)c3)c2n1Cc1ccc(OC)cc1` [Compound 97, 2-butyl-1-(4-methoxybenzyl)-7-(1-methyl-1H-pyrazol-4-yl)-1H-imidazo[4,5-d]pyridazin-4-amine] showed an activation at 20 µM in assay [1] of 13%. Moreover, the EC50 in assay [2] is over 20 µM.
On to `CCCCc1nc2c(N)nnc(NC)c2n1Cc1ccc(OC)cc1` [Compound 53, 2-butyl-1-(4-methoxybenzyl)-N7-methyl-1H-imidazo[4,5-d]pyridazine-4,7-diamine], for which the EC50 was 775 nM in assay [1] and over 20 µM in assay [2].
Regarding `CCCCc1nc2c(N)nnc(N(C)Cc3ccc(CN(C)CCOC)cc3)c2n1C` [Compound 47, 2-butyl-N7-(4-(((2-methoxyethyl)(methyl)amino)methyl)benzyl)-N7,1-dimethyl-1H-imidazo[4,5-d]pyridazine-4,7-diamine], the EC50 in assay [1] stood at 421 nM; in assay [2] it was 0.223 µM.
`CCCCc1nc2c(N)nnc(C3CCCC3)c2n1Cc1ccc(OC)cc1` [Compound 16, 2-butyl-7-cyclopentyl-1-(4-methoxybenzyl)-1H-imidazo[4,5-d]pyridazin-4-amine]: the EC50 in assay [1] is 323 nM; in assay [2], over 20 µM.
On the same counts, the results for `CCCCc1nc2c(N)nnc(NCc3ccc(CN)cc3)c2n1C` [Compound 87, N7-(4-(aminomethyl)benzyl)-2-butyl-1-methyl-1H-imidazo[4,5-d]pyridazine-4,7-diamine] are 8520 nM and over 20 µM.
Take `CCCCc1nc2c(N)nnc(/C=C/C(C)C)c2n1C[C@H]1CC[C@H](N)CC1` [Compound 139, 1-(((1R,4R)-4-aminocyclohexyl)methyl)-2-butyl-7-((E)-3-methylbut-1-en-1-yl)-1H-imidazo[4,5-d]pyridazin-4-amine]: the EC50 in assay [1] was 370 nM; in assay [2], over 20 µM.
On the same counts, the results for `CCCCc1nc2c(N)nnc(C=C(C)C)c2n1Cc1ccc(OC)cc1` [Compound 60, 2-butyl-1-(4-methoxybenzyl)-7-(2-methylprop-1-en-1-yl)-1H-imidazo[4,5-d]pyridazin-4-amine] are 813 nM and over 20 µM.
For `CCCCc1nc2c(N)nnc(OC(C)C)c2n1Cc1ccc(CN[C@H]2C[C@H](O)C2)cc1` [Compound 100, (1R,3R)-3-((4-((4-amino-2-butyl-7-isopropoxy-1H-imidazo[4,5-d]pyridazin-1-yl)methyl)benzyl)amino)cyclobutan-1-ol dihydrochloride salt], the figures for the EC50 in assay [1] and in assay [2] were 36 nM and 2.17 µM, respectively.
In the case of `CCCCc1nc2c(N)nnc(OC(C)C)c2n1Cc1ccc(C#N)cn1` [Compound 27, 6-((4-amino-2-butyl-7-isopropoxy-1H-imidazo[4,5-d]pyridazin-1-yl)methyl)nicotinonitrile], the EC50 in assay [1] was 2100 nM; in assay [2], over 20 µM.
As to `Cc1nc2c(N)nnc(OC(C)C)c2n1Cc1ccc(CN)cc1` [Compound 160, 1-(4-(aminomethyl)benzyl)-7-isopropoxy-2-methyl-1H-imidazo[4,5-d]pyridazin-4-amine], the activation at 20 µM turned out to be 35% in assay [1] and 18% in assay [2] (24 h, at 20000 nM).
For `CCCCc1nc2c(N)nnc(OC(C)C)c2n1Cc1ccc(CNCCOCCOCCOCCOC)cc1` [Compound 121, 2-butyl-4-isopropoxy-3-[[4-[[2-[2-[2-(2-methoxyethoxy)ethoxy]ethoxy]ethylamino]methyl]phenyl]methyl]imidazo[4,5-d]pyridazin-7-amine], the EC50 came to 86 nM in assay [1] and 15.9 µM in assay [2].
Take `CCCCc1nc2c(N)nnc(OC(C)C)c2n1CCCCN` [Compound 149, 3-(4-aminobutyl)-2-butyl-4-isopropoxy-imidazo[4,5-d]pyridazin-7-amine dihydrochloride salt]: the EC50 in assay [1] was 12600 nM; in assay [2] it was over 20 µM.
Take `CCCCc1nc2c(N)nnc(OC(C)C)c2n1Cc1ccc(CN(C(C)=O)C2CS(=O)(=O)C2)cc1` [Compound 38, N-(4-((4-amino-2-butyl-7-isopropoxy-1H-imidazo[4,5-d]pyridazin-1-yl)methyl)benzyl)-N-(1,1-dioxidothietan-3-yl)acetamide]: the EC50 in assay [1] is 345 nM; in assay [2] it was 14.7 µM.

Source of the values: patent US12583861B2, “Derivatives of imidazo[4,5-d]pyridazine, their preparation and their therapeutic application” (SANOFI, priority 2021, dated 2026).
